Test results published in patent publication US7662553B2, “Polymorphisms in the ERCC1 gene for predicting treatment outcome” (University of Southern California, priority 2002, dated 2010).

Assays:
[1] = test system: locally advanced rectal cancer; experiment: Time to local recurrence after adjuvant pelvic irradiation plus 5-FU infusion (Example 1); format: in vivo, human
Protocol: Methods: Seventy-three (73) patients with locally advanced rectal cancer (UICC stage II and III) were selected. They had been previously treated with adjuvant pelvic irradiation (45 Gy) to the whole pelvis with an additional boost up to 54 Gy plus 5-FU infusion therapy following tumor resection tissue acquisition during surgery. QRT-PCR (a fluorescence-based, quantitative real-time detection method (Taqman®)) was performed on RNA extracted from formalin-fixed, paraffin-embedded, laser-capture-microdissected tissue to establish gene expression levels. The mRNA was reverse transcribed to cDNA and the genes of interest were quantified as well as an internal reference gene (β-Actin) as a control. All gene expression levels were log-transformed prior to analysis. The maximal c^2 method of Miller, Siegmund (Miller R. and Siegmund D. Biometrics (1982) 38:1011-1016) and Halpem (Halpem J. (1982) Biometrics 38:1017-1023) was used to determine which gene expression best segregated patients into poor- and good-prognosis subgroups 2000 bootstrap-like simulations were used to estimate the distribution of the maximal c^2 statistics under the null hypothesis of no association.

[2] = test system: locally advanced rectal cancer; experiment: Pelvic recurrence after 5-FU and pelvic radiation by TS promoter genotype (Example 2); format: in vivo, human; conditions: pre- or post-operative 5-FU and pelvic radiation
Protocol: Methods: Forty-three (43) patients with locally advanced rectal cancer, who were treated with either pre-operative or post-operative 5-FU and pelvic radiation were analyzed. Genomic DNAs were extracted from paraffin-embedded tissue samples. Patients' genotype for the TS polymorphism was determined by polymerase chain reaction (PCR) amplification of TS promoter region.

Structure (SMILES)	Probability ± SE of 5-yr recurrence ([1]; total patients n=73, UICC stage II and III, pelvic irradiation 45 Gy with boost up to 54 Gy plus 5-FU infusion after resection)	Median time to recurrence ([1]; total patients n=73, pelvic irradiation plus 5-FU infusion after resection) [Month]	Pelvic recurrences, patients ([2]; TS (2/2) and (2/3) genotypes) [%]	Pelvic recurrences, patients ([2]; TS (3/3) genotype) [%]	Effect on neurotoxicity in patients treated with oxaliplatin (celebrex 200-400 mg day, p<0.01)	Patients who developed grade II or III neurotoxicity (of 56 patients with celebrex therapy in combination with oxaliplatin/5-FU chemotherapy) [patients]
O=c1[nH]cc(F)c(=O)[nH]1 [5-FU, 5-fluorouracil]	0.53 ± 0.08	57.0	37	87		
Cc1ccc(-c2cc(C(F)(F)F)nn2-c2ccc(S(N)(=O)=O)cc2)cc1 [celebrex]					protecting against neurotoxicity	3
